# Data from patent publication US10647675B2 (priority 2015, dated 2020).
# Tests used:
# [1] = tested on: Trichophyton mentagrophytes SM-110; test: Antifungal activity evaluation test: minimum inhibitory concentration (MIC), broth dilution by reference to CLSI M38-A2; format: cell-based; settings: SM110, read-out: MIC (T. menta.)
# In short: (§1)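 Broth microdilution after CLSI M38-A2: 2-fold DMSO dilution series in MOPS-buffered RPMI 1640 pH 7.0, inoculum 2×10^3 cells/mL final. Incubated 35° C for 4 days; MIC (μg/mL) is lowest concentration giving visually ≥80% growth inhibition versus growth control.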
# [2] = tested on: Trichophyton rubrum KD-1130; test: as above; format: cell-based; settings: KD1130, read-out: MIC (T. rubrum)
# In short: as §1
MIC [1],MIC [2],SMILES
≤ 0.1 µg/mL,≤ 0.1 µg/mL,"COc1ccc(-c2cccnc2Oc2ccc(C(C)(F)F)nc2)c(OC)n1 [I-94, 2′-{[6-(1,1-difluoroethyl)pyridin-3-yl]oxy}-2,6-dimethoxy-3,3′-bipyridine]"
≤ 0.1 µg/mL,≤ 0.1 µg/mL,Cc1ncc(-c2ccc(Oc3ncccc3-c3cnccc3C)cc2)o1 [I-423]
0.2 to 0.78 µg/mL,0.2 to 0.78 µg/mL,"CCc1ccc(Oc2ncccc2-c2ccccc2OC)cn1 [I-124, 2-[(6-ethylpyridin-3-yl)oxy]-3-(2-methoxyphenyl)pyridine]"
0.2 to 0.78 µg/mL,0.2 to 0.78 µg/mL,"COc1ccccc1-c1cccnc1Oc1ccc(C(F)(F)Cn2ccnc2)nc1 [I-351, 2-({6-[1,1-difluoro-2-(1H-imidazol-1-yl)ethyl]pyridin-3-yl}oxy)-3-(2-methoxyphenyl)pyridine]"
≤ 0.1 µg/mL,≤ 0.1 µg/mL,"CCc1ccc(Oc2ncccc2-c2cnccc2CC)cc1 [I-291, 4′-ethyl-2-(4-ethylphenoxy)-3,3′-bipyridine]"
≤ 0.1 µg/mL,≤ 0.1 µg/mL,Cc1ccncc1-c1cccnc1Oc1ccc(I)cc1 [I-426]
≤ 0.1 µg/mL,≤ 0.1 µg/mL,"CCc1cc(Oc2ncccc2-c2cnccc2OC)ccc1C [I-264, 2-(3-ethyl-4-methylphenoxy)-4′-methoxy-3,3′-bipyridine]"
0.2 to 0.78 µg/mL,0.2 to 0.78 µg/mL,"COc1ccncc1-c1cccnc1Oc1ccc(C)c(C)c1 [I-262, 2-(3,4-dimethylphenoxy)-4′-methoxy-3,3′-bipyridine]"
1.56 to 6.25 µg/mL,1.56 to 6.25 µg/mL,"CCOc1ncc(Oc2ncccc2-c2ccc(F)cc2OC)cn1 [I-187, 2-ethoxy-5-{[3-(4-fluoro-2-methoxyphenyl)pyridin-2-yl]oxy}pyrimidine]"
0.2 to 0.78 µg/mL,0.2 to 0.78 µg/mL,"COc1ccncc1-c1cccnc1Oc1ccc(C(F)F)cc1 [I-294, 2-[4-(difluoromethyl)phenoxy]-4′-methoxy-3,3′-bipyridine]"
≤ 0.1 µg/mL,≤ 0.1 µg/mL,Cc1cc(Oc2ncccc2-c2cccc3ccnn23)ccc1C(F)F [I-462]
≤ 0.1 µg/mL,≤ 0.1 µg/mL,COc1cc(F)ccc1-c1cccnc1Oc1ccc(C(C)(F)F)nc1 [I-82]
≤ 0.1 µg/mL,≤ 0.1 µg/mL,"COc1ncccc1-c1cncnc1Oc1ccc(C(F)(F)F)cc1 [I-330, 5-(2-methoxypyridin-3-yl)-4-[4-(trifluoromethyl)phenoxy]pyrimidine]"
0.2 to 0.78 µg/mL,0.2 to 0.78 µg/mL,Cc1ccncc1-c1cccnc1Oc1ccc(C(F)(F)F)nc1 [I-25]
0.2 to 0.78 µg/mL,0.2 to 0.78 µg/mL,"COc1cc(F)ccc1-c1cccnc1Oc1cnc(CCc2cnn(C)c2)nc1 [I-198, 5-{[3-(4-fluoro-2-methoxyphenyl)pyridin-2-yl]oxy}-2-[2-(1-methyl-1H-pyrazol-4-yl)ethyl]pyrimidine]"
0.2 to 0.78 µg/mL,≤ 0.1 µg/mL,"Fc1cccc(-c2cccnc2Oc2ccc(C(F)(F)F)nc2)c1F [I-9, 3-(2,3-difluorophenyl)-2-{[6-(trifluoromethyl)pyridin-3-yl]oxy}pyridine]"
≤ 0.1 µg/mL,≤ 0.1 µg/mL,COCC(F)(F)c1ccc(Oc2ncccc2-c2cc(Cl)cnc2OC)cn1 [I-451]
0.2 to 0.78 µg/mL,0.2 to 0.78 µg/mL,"COCC(F)(F)c1ccc(Oc2ncccc2-c2cccnc2OC)cn1 [I-348, 2-{[6-(1,1-difluoro-2-methoxyethyl)pyridin-3-yl]oxy}-2′-methoxy-3,3′-bipyridine]"
≤ 0.1 µg/mL,≤ 0.1 µg/mL,"CCc1ccc(Oc2ncccc2-c2ccncc2OC)cc1 [I-281, 2-(4-ethylphenoxy)-3′-methoxy-3,4′-bipyridine]"
≤ 0.1 µg/mL,≤ 0.1 µg/mL,"COc1ccncc1-c1cccnc1Oc1ccc(OC(F)(F)F)cc1 [I-237, 4′-methoxy-2-[4-(trifluoromethoxy)phenoxy]-3,3′-bipyridine]"
≤ 0.1 µg/mL,≤ 0.1 µg/mL,"COC(=O)CN(C)c1ncc(Oc2ncccc2-c2ccccc2OC)cn1 [I-387, methyl 2-[(5-{[3-(2-methoxyphenyl)pyridin-2-yl]oxy}pyrimidin-2-yl)(methyl)amino]acetate]"
≤ 0.1 µg/mL,≤ 0.1 µg/mL,CCCCN(C)c1ncc(Oc2ncccc2-c2cnccc2OC)cn1 [I-384]
0.2 to 0.78 µg/mL,0.2 to 0.78 µg/mL,"COc1cc(F)ccc1-c1cccnc1Oc1ccc(C(F)(F)CO)nc1 [I-154, 2,2-difluoro-2-(5-{[3-(4-fluoro-2-methoxyphenyl)pyridin-2-yl]oxy}pyridin-2-yl)-ethanol]"
≤ 0.1 µg/mL,≤ 0.1 µg/mL,"CC(F)(F)c1ccc(Oc2ncccc2-c2cccc3nccnc23)cc1 [I-308, 5-{2-[4-(1,1-difluoroethyl)-phenoxy]-3-yl}quinoxaline]"
≤ 0.1 µg/mL,≤ 0.1 µg/mL,"COc1ccncc1-c1cccnc1Oc1ccc(C(F)(F)F)cc1 [I-210, 4′-methoxy-2-[4-(trifluoromethyl)phenoxy]-3,3′-bipyridine]"

MIC [1],MIC [2],SMILES
≤ 0.1 µg/mL,0.2 to 0.78 µg/mL,"COc1cc(F)ccc1-c1cccnc1Oc1ccc(C(F)(F)Cn2ccnc2)nc1 [I-158, 2-{(6-[1,1-difluoro-2-(1H-imidazol-1-yl)ethyl]pyridin-3-yl)oxy}-3-(4-fluoro-2-methoxyphenyl)pyridine]"
≤ 0.1 µg/mL,≤ 0.1 µg/mL,"COc1ccccc1-c1cncnc1Oc1ccc(C(F)F)cc1 [I-322, 4-[4-(difluoromethyl)phenoxy]-5-(2-methoxyphenyl)pyrimidine]"
≤ 0.1 µg/mL,≤ 0.1 µg/mL,"COc1ccccc1-c1cccnc1Oc1cnc2c(c1)CCCC2(F)F [I-142, 8,8-difluoro-3-{[3-(2-methoxyphenyl)pyridin-2-yl]oxy}-5,6,7,8-tetrahydroquinoline]"
≤ 0.1 µg/mL,0.2 to 0.78 µg/mL,COc1ccccc1-c1cccnc1Oc1ccc(N(C)C)nc1 [I-365]
≤ 0.1 µg/mL,≤ 0.1 µg/mL,"CCOC(=O)CN(C)c1ncc(Oc2ncccc2-c2ccc(F)cc2OC)cn1 [I-386, ethyl 2-[(5-{[3-(4-fluoro-2-methoxyphenyl)pyridin-2-yl]oxy}-pyrimidin-2-yl)(methyl)amino]acetate]"
≤ 0.1 µg/mL,≤ 0.1 µg/mL,"CCc1ccc(Oc2ncccc2-c2cnccc2C)cc1 [I-289, 2-(4-ethylphenoxy)-4′-methyl-3,3′-bipyridine]"
≤ 0.1 µg/mL,≤ 0.1 µg/mL,Cc1ccncc1-c1cccnc1Oc1ccc(-c2ncccn2)cc1 [I-429]
≤ 0.1 µg/mL,≤ 0.1 µg/mL,"COc1ccccc1-c1cccnc1Oc1ccc(OCc2ccccc2)nc1 [I-171, 2-{[6-(benzyloxy)pyridin-3-yl]oxy}-3-(2-methoxyphenyl)pyridine]"
≤ 0.1 µg/mL,≤ 0.1 µg/mL,"COc1ccccc1-c1cccnc1Oc1ccc(C(C)(F)F)nc1 [I-81, 2-{[6-(1,1-difluoroethyl)pyridin-3-yl]oxy}-3-(2-methoxyphenyl)pyridine]"
≤ 0.1 µg/mL,≤ 0.1 µg/mL,"COc1ncccc1-c1cccnc1Oc1cnc(N(C)Cc2ccccc2)nc1 [I-381, N-benzyl-5-{[2′-methoxy-(3,3′-bipyridin)-2-yl]oxy}-N-methylpyrimidin-2-amine]"
≤ 0.1 µg/mL,≤ 0.1 µg/mL,"COCC(F)(F)c1ccc(Oc2ncccc2-c2cc(OC)c(F)cc2F)cn1 [I-165, 2-{[6-(1,1-difluoro-2-methoxyethyl)pyridin-3-yl]oxy}-3-(2,4-difluoro-5-methoxyphenyl)pyridine]"
≤ 0.1 µg/mL,≤ 0.1 µg/mL,"COc1ccccc1-c1cccnc1Oc1ccc(OCc2cccnc2)nc1 [I-174, 3-(2-methoxyphenyl)pyridin-2-{[6-(pyridin-3-ylmethoxy)pyridin-3-yl]oxy}pyridine]"
≤ 0.1 µg/mL,≤ 0.1 µg/mL,"COc1ccccc1-c1cccnc1Oc1ccc(C(F)(F)Cn2cc(C)cn2)nc1 [I-153, 2-{(6-[1,1-difluoro-2-(4-methyl-1H-pyrazol-1-yl)ethyl]pyridin-3-yl}oxy)-3-(2-methoxyphenyl)pyridine]"
≤ 0.1 µg/mL,≤ 0.1 µg/mL,Cc1noc(-c2ccc(Oc3ncccc3-c3cnccc3C)cc2)n1 [I-421]
≤ 0.1 µg/mL,≤ 0.1 µg/mL,"CCCN(C)c1ccc(Oc2ncccc2-c2ccc(F)cc2OC)cn1 [I-368, 5-{[3-(4-fluoro-2-methoxyphenyl)pyridin-2-yl]oxy}-N-methyl-N-propylpyridin-2-amine]"
≤ 0.1 µg/mL,≤ 0.1 µg/mL,"COc1ncccc1-c1cccnc1Oc1ccc2c(c1)CCCC2=O [I-272, 6-{[2′-methoxy-(3,3-bipyridin)-2-yl]oxy}-3,4-dihydronaphthalen-1(2H)-one]"
0.2 to 0.78 µg/mL,≤ 0.1 µg/mL,"Clc1ccc(Oc2nccnc2-c2cccc3ccccc23)cc1 [I-314, 2-(4-chlorophenoxy)-3-(naphthalen-1-yl)pyrazine]"
≤ 0.1 µg/mL,≤ 0.1 µg/mL,"COc1cc(F)ccc1-c1cccnc1Oc1cnc(C(F)F)c(C)c1 [I-121, 2-(difluoromethyl)-5-{[3-(4-fluoro-2-methoxyphenyl)pyridin-2-yl]oxy}-3-methylpyridine]"
1.56 to 6.25 µg/mL,1.56 to 6.25 µg/mL,COc1ccncc1-c1cccnc1Oc1ccc(C=O)cc1 [I-246]
0.2 to 0.78 µg/mL,0.2 to 0.78 µg/mL,"COc1ccncc1-c1cccnc1Oc1ccc(SC(F)(F)F)cc1 [I-239, 4′-methoxy-2-{4-[(trifluoromethyl)thio]phenoxy}-3,3′-bipyridine]"
0.2 to 0.78 µg/mL,1.56 to 6.25 µg/mL,"COc1ccccc1-c1cccnc1Oc1ccc(C(F)(F)CO)nc1 [I-79, 2,2-difluoro-2-(5-{[3-(2-methoxyphenyl)pyridin-2-yl]oxy}pyridin-2-yl)ethanol]"
≤ 0.1 µg/mL,≤ 0.1 µg/mL,"CCc1ccc(Oc2ncccc2-c2cncc(C(F)F)c2OC)cc1 [I-288, 5′-(difluoromethyl)-2-(4-ethylphenoxy)-4′-methoxy-3,3′-bipyridine]"
1.56 to 6.25 µg/mL,1.56 to 6.25 µg/mL,CC(F)(F)c1ccc(Oc2ncccc2-c2cccnc2N2CCCC2)cn1 [I-105]
≤ 0.1 µg/mL,≤ 0.1 µg/mL,"COc1ccncc1-c1cccnc1Oc1ccc(C2CC2)cc1 [I-261, 2-(4-cyclopropylphenoxy)-4′-methoxy-3,3′-bipyridine]"
